Data on four compounds can be found in patent EP4678643A1, “KRAS INHIBITOR COMPOUND, PHARMACEUTICAL COMPOSITION THEREOF, AND USE THEREOF” (Sunshine Lake Pharma Co., Ltd., priority 2023, dated 2024).

The target of one data set is KRAS G12D-GTP & SOS1 (Homo sapiens, UniProt P01116, G12D). The experiment in a line: KRAS G12D/SOS1 Binding Assay (HTRF). Conditions: competitive binding, 665/615 nm ratio. The source says:
3. KRAS G12D/SOS1 Binding Assay

The next data set concerns the target KRAS G12D-GTP & cRAF (Homo sapiens, UniProt P01116, G12D). The experiment in a line: KRAS G12D/cRAF Binding Assay (HTRF). Particulars: competitive binding, 665/615 nm ratio. From the text:
2. KRAS G12D/cRAF Binding Assay

Data set [1] deals with pERK in NCI-H727 cells (KRAS p.G12V). The experiment in a line: Inhibitory effect on intracellular pERK by In-Cell Western assay, NCI-H727. Conditions: Homo sapiens, pERK inhibition, compound incubation 3 h. In kind it is cell-based. The procedure:
(§1) 1. Determination of Inhibitory Effect on Intracellular pERK by In-Cell Western Assay
(§2) (1) On the first day, the following cells were revived and cultured with the corresponding culture medium and incubated at 37 °C, 5% CO2 until confluence.
(§3) (2) On the third day, the culture medium was removed, the cells were rinsed once with DPBS, 2 mL of TrypLE™ trypsin was added for digestion, and the cells were placed at room temperature until the cells detached. (3) 5 mL fresh culture medium was added to resuspend cells to terminate the digestion, and the cells were gently pipetted and centrifuged at 1000 rpm for 5 minutes at room temperature. (4) The supernatant was removed, and 5 mL fresh culture medium was added to resuspend the cells and count cells. (5) The cells were plated in a 384-well plate with appropriate cell concentration by adjusting with complete culture medium and incubated at 37 °C, 5% CO2 for overnight. (6) 200 nL of the prepared serial dilution compound (DMSO final concentration was 0.5%) was added and incubated at 37 °C, CO2 for 3 h (HPAC cell lines for 1 h). (7) The cells were fixed. (8) The cells were washed twice with PBS. (9) The blocking solution was added and the cells were incubated at room temperature for 1 h. (10) The blocking solution was removed, and the primary antibody (phospho-ERK Rabbit mAb + GAPDH (D4C6R) Mouse mAb) was added and the cells were incubated at 4 °C for overnight. (11) The cells were washed twice with PBST (PBS + 0.05% Tween 20) for 2 minutes each time. (12) PBST was removed and secondary antibody (IRDye 800CW Goat anti-Rabbit IgG (H+L) + IRDye 680RD Goat anti Mouse IgG (H+L)) was added and incubated away from light at room temperature. (14) Secondary antibody was discarded and the cell was washed twice with PBST, 2 minutes each time. (15) 384-well plate was inverted and centrifuged at 1000 rpm at room temperature for 1 minute, and the 384-well plate was scanned with Odyssey CLx. (16) Data analysis: • a) Assay stability check was peformed by using DMSO and reference control data: [formula] […]

The test system of data set [2] is pERK in HPAC cells (KRAS p.G12D). The experiment in a line: Inhibitory effect on intracellular pERK by In-Cell Western assay, HPAC. In kind it is cell-based. Particulars: Homo sapiens, pERK inhibition, compound incubation 1 h, read-out: HPAC, IC50 (nM) KRASp.G12D. The procedure: as §1, §2, §3
For data set [3], the system named is pERK in H358 cells (KRAS p.G12C). The experiment in a line: Inhibitory effect on intracellular pERK by In-Cell Western assay, H358. Conditions: Homo sapiens, NCI-H358, pERK inhibition, compound incubation 3 h. In kind it is cell-based. The procedure:
as §1, §2
(§4) (2) On the third day, the culture medium was removed, the cells were rinsed once with DPBS, 2 mL of TrypLE™ trypsin was added for digestion, and the cells were placed at room temperature until the cells detached. (3) 5 mL fresh culture medium was added to resuspend cells to terminate the digestion, and the cells were gently pipetted and centrifuged at 1000 rpm for 5 minutes at room temperature. (4) The supernatant was removed, and 5 mL fresh culture medium was added to resuspend the cells and count cells. (5) The cells were plated in a 384-well plate with appropriate cell concentration by adjusting with complete culture medium and incubated at 37 °C, 5% CO2 for overnight. (6) 200 nL of the prepared serial dilution compound (DMSO final concentration was 0.5%) was added and incubated at 37 °C, CO2 for 3 h (HPAC cell lines for 1 h). (7) The cells were fixed. (8) The cells were washed twice with PBS. (9) The blocking solution was added and the cells were incubated at room temperature for 1 h. (10) The blocking solution was removed, and the primary antibody (phospho-ERK Rabbit mAb + GAPDH (D4C6R) Mouse mAb) was added and the cells were incubated at 4 °C for overnight. (11) The cells were washed twice with PBST (PBS + 0.05% Tween 20) for 2 minutes each time. (12) PBST was removed and secondary antibody (IRDye 800CW Goat anti-Rabbit IgG (H+L) + IRDye 680RD Goat anti Mouse IgG (H+L)) was added and incubated away from light at room temperature. (14) Secondary antibody was discarded and the cell was washed twice with PBST, 2 minutes each time. (15) 384-well plate was inverted and centrifuged at 1000 rpm at room temperature for 1 minute, and the 384-well plate was scanned with Odyssey CLx. (16) Data analysis: • a) Assay stability check was peformed by using DMSO and reference control data: [formula] [formula] • b) nonlinear fitting of Compound IC50: Y = Bottom + (Top−Bottom)/(1+10^(∧)((LogIC50−X)×HillSlope)). [formula]

The subject of data set [4] is pERK in AGS cells (KRAS G12D). The experiment in a line: Inhibitory effect on intracellular pERK by In-Cell Western assay, AGS. Conditions: pERK inhibition, compound incubation 3 h, read-out: AGS, IC50 (nM) KRAS p.G12D. In kind it is cell-based. The procedure:
as §1, §2
(2) On the third day, the culture medium was removed, the cells were rinsed once with DPBS, 2 mL of TrypLE™ trypsin was added for digestion, and the cells were placed at room temperature until the cells detached. (3) 5 mL fresh culture medium was added to resuspend cells to terminate the digestion, and the cells were gently pipetted and centrifuged at 1000 rpm for 5 minutes at room temperature. (4) The supernatant was removed, and 5 mL fresh culture medium was added to resuspend the cells and count cells. (5) The cells were plated in a 384-well plate with appropriate cell concentration by adjusting with complete culture medium and incubated at 37 °C, 5% CO2 for overnight. (6) 200 nL of the prepared serial dilution compound (DMSO final concentration was 0.5%) was added and incubated at 37 °C, CO2 for 3 h (HPAC cell lines for 1 h). (7) The cells were fixed. (8) The cells were washed twice with PBS. (9) The blocking solution was added and the cells were incubated at room temperature for 1 h. (10) The blocking solution was removed, and the primary antibody (phospho-ERK Rabbit mAb + GAPDH (D4C6R) Mouse mAb) was added and the cells were incubated at 4 °C for overnight. (11) The cells were washed twice with PBST (PBS + 0.05% Tween 20) for 2 minutes each time. (12) PBST was removed and secondary antibody (IRDye 800CW Goat anti-Rabbit IgG (H+L) + IRDye 680RD Goat anti Mouse IgG (H+L)) was added and incubated away from light at room temperature. (14) Secondary antibody was discarded and the cell was washed twice with PBST, 2 minutes each time. (15) 384-well plate was inverted and centrifuged at 1000 rpm at room temperature for 1 minute, and the 384-well plate was scanned with Odyssey CLx.

The subject of data set [5] is pERK in MKN1 cells (KRAS WTdep). The experiment in a line: Inhibitory effect on intracellular pERK by In-Cell Western assay, MKN1. In kind it is cell-based. Conditions: Homo sapiens, MKN-1, pERK inhibition, compound incubation 3 h. The procedure: as §1, §2, §4
Data set [6] has as its system pERK in A549 cells (KRAS p.G12S). The experiment in a line: Inhibitory effect on intracellular pERK by In-Cell Western assay, A549. In kind it is cell-based. Particulars: Homo sapiens, pERK inhibition, compound incubation 3 h. On the procedure: as §1, §2, §4
For data set [7] the following is noted: mouse, in vivo.
Description: (§5) Pharmacokinetic evaluation of the compounds of the present invention by intravenous injection or oral gavage in mice
(§6) The inventors conducted a pharmacokinetic evaluation of the compounds of this invention in mice.
(§7) The compounds of the present invention were administered to test animals in the form of a solution of 5% DMSO + 30% PEG400 + 65% saline, 10% DMSO + 10% Kolliphor HS15 + 80% Saline, 10% DMSO + 89% (25% SBE-B-CD) + (2% HCl), 20% PEG400 + 80% sterile water for injection, or 10% DMA + 10% HS15 + 30% PEG400 + 50% sterile water for injection. The animals were fasted for 12 hours before administration and had free access to water. For the intravenous administration group, the dose was 2 mg/kg/day, qd. Venous blood samples (approximately 0.15 mL) were collected at the following time points after administration: 0.083, 0.25, 0.5, 1.0, 2.0, 5.0, 7.0 and 24 hours. EDTA-K2 was pre-added to the blood collection tube as an anticoagulant. Blood samples were centrifuged at 12,000 rpm for 2 minutes, and plasma was collected and stored at -20°C or -70°C. For the intravenous administration group, the dose was 5 mg/kg/day, qd. Venous blood samples (approximately 0.15 mL) were collected at the following time points after administration: 0.25, 0.5, 1.0, 2.0, 5.0, 7.0 and 24 hours. EDTA-K2 was pre-added to the blood collection tube as an anticoagulant. Blood samples were centrifuged at 12,000 rpm for 2 minutes, and plasma was collected and stored at -20°C or -70°C.
(§8) The collected plasma samples were processed (frozen plasma was thawed at room temperature and vortexed for 15 seconds. 10-20 µL of plasma was added to 120-150 µL of acetonitrile solution containing the internal standard and vortexed for 5 minutes. The sample was centrifuged at 4,000 rpm for 5 minutes. 100 µL of the supernatant was added to 120-150 µL of methanol/water (v/v = 1/1) and mixed). The concentrations of the compounds in the plasma were analyzed by LC-MS/MS.
Data set [8] relates to pERK in HCT 116 cells (KRAS p.G13D). The experiment in a line: Inhibitory effect on intracellular pERK by In-Cell Western assay, HCT 116. In kind it is cell-based. Conditions: Homo sapiens, pERK inhibition, compound incubation 3 h. On the procedure: as §1, §2, §4
Another data set is described as follows: in vivo. Particulars: mouse.

A word on the IC50: it is the concentration that gives 50% inhibition. One may read the AUC(0-inf) as total exposure, with the tail of the curve extrapolated. A lower AUC(0-inf) goes with low exposure. Broadly, the AUC(0-t) is exposure summed from dosing to a finite time, without extrapolation to infinity. The term Cmax denotes the peak of the concentration-time curve. For orientation: MRT last means a mean duration of stay, worked out from the concentration-time curve. As a reminder, the Tmax is the time at which the peak concentration occurs. For orientation: Vd means the apparent volume that relates the amount in the body to the concentration in plasma or blood. A low value points to confinement near the circulation. What is called clearance is the volume of plasma or blood freed of the substance per unit of time. Low values mean inefficient removal, high ones efficient removal. For orientation: half-life means the time in which the quantity being followed falls by half. Read a low half-life as fast loss.

Where two headings read alike, the source gives them in different places.

KRAS G12D-GTP & SOS1, sequence (P01116 1-188 isoform P01116-2 G12D): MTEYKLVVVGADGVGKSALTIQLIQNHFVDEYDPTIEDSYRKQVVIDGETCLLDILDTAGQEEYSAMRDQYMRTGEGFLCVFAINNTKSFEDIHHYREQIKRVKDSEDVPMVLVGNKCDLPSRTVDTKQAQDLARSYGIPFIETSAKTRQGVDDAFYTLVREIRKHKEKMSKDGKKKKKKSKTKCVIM
KRAS G12D-GTP & cRAF, sequence (P01116 1-188 isoform P01116-2 G12D): as above
Description for in vivo: as §5, §6, §7, §8

On to `C#Cc1c(F)ccc2cc(O)cc(-c3nc(C#CCC)c4c(N5CCCOCC5)nc(OCC56CCCN5CC(F)C6)nc4c3F)c12` (stereo not shown) [Compound 3], for which the IC50 on KRAS G12D-GTP & SOS1 is 14.8 nM; at KRAS G12D-GTP & cRAF it was 7.4 nM; in [1], 2.2 nM; in data set [2], 0.6 nM; in data set [3], 0.7 nM; in data set [4] (Homo sapiens, AGS, 3 h) it was 0.5 nM. In [5], the IC50 came out at 3.7 nM.

Turning to `CC#Cc1nc(-c2cc(O)cc3ccc(F)c(CC)c23)c(F)c2nc(OCC34CCCN3CC(F)C4)nc(N3CCCOCC3)c12` (stereo not shown) [Compound 2], the IC50 at KRAS G12D-GTP & SOS1 amounted to 20.8 nM; on KRAS G12D-GTP & cRAF, 13.7 nM; in [1], 4.8 nM; in [2] it was 1.6 nM; in [3], 2 nM; in data set [4] (Homo sapiens, AGS, 3 h) it was 2.2 nM. This compound gave an IC50 in [5] of 6.4 nM.

As for `C#Cc1c(F)ccc2cc(O)cc(-c3nc(C#CC)c4c(N5CCCOCC5)nc(OCC56CCCN5CC(F)C6)nc4c3F)c12` (stereo not shown) [Compound 1], the IC50 came out at 0.6 nM in data set [6]; 16.3 nM at KRAS G12D-GTP & SOS1; 7.9 nM at KRAS G12D-GTP & cRAF; 1 nM in data set [1]; 0.3 nM in data set [2]; 0.4 nM in data set [3]. The IC50 in data set [4] stood at 0.2 nM; in data set [8], 2.1 nM; in [5], 1.9 nM. In addition, the “pharmacokinetic properties in mice” value in [7] is given as “good pharmacokinetic properties”.

Turning to `C#Cc1c(F)ccc2cc(O)cc(-c3nc(C#CCC)c4c(N5CCCCC(F)C5)nc(OC[C@@]56CCCN5C[C@H](F)C6)nc4c3F)c12` (stereo partly shown) [Compound 26], 15.1 nM corresponded to half-maximal inhibition in data set [6] (IC50). In “in vivo” (iv, 2 mg/kg/day), the AUC(0-inf) was 8110 ng·h/mL, the AUC(0-t) came to 8050 ng·h/mL, the Cmax came out at 8280 ng/mL and the MRT last stood at 1.2 h. In “in vivo” (iv, 2 mg/kg/day), the Tmax worked out at 0.083 h, the Vd is 0.3 L/kg, the clearance amounted to 4.1 mL/min/kg and the half-life is 1 h. In the data set “in vivo” (po, 5 mg/kg/day), this compound came in with an AUC(0-inf) of 4240 ng·h/mL, an AUC(0-t) of 4120 ng·h/mL, a Cmax of 1630 ng/mL and an MRT last of 1.8 h. In the data set “in vivo” (po, 5 mg/kg/day), the Tmax was found to be 0.5 h and the half-life is 1.3 h. The same compound registered an IC50 in [3] of 3.9 nM. The IC50 in data set [4] (Homo sapiens, AGS, 3 h) amounted to 3.2 nM. In addition, the IC50 in [8] amounted to 47.3 nM. In [5], this compound displayed an IC50 of 21.5 nM.
